Measurements as given in patent US20030044497A1, “Process to treat fish with tasteless smoke or carbon monoxide through the respiratory and circulatory systems” (priority 2001, published 2003).

Assays:
[1] = liquid water or blood plasma; cited from earlier work
[2] = 24 degrees Centigrade, one atmosphere, 20% reduction for seawater medium
Text: The volume of gas, vo, (in milliliters STPD) dissolved in one liter of water at one atmosphere pressure (760 mm Hg) is expressed by the following formula:
vo=absorption coefficient×(V×Po)
where V is the volume of the solvent, and Po is the partial pressure of the gas in atmospheres. Therefore, the amount of gas dissolved is dependent upon its partial pressure in a linear relationship.
The coefficient of solubility is defined as the volume of the gas taken up by a unit volume of the solvent under a particular set of temperature and pressure conditions. If v is the volume of the dissolved gas, measured at temperature T and partial pressure Pg atm, with To equal to 0 degrees Centigrade, then:

[3] = Increase of CO concentration in treated flesh; settings: treated fish flesh or other meats
Protocol: However, when natural fish flesh or other meats are treated with carbon monoxide the concentrations in the flesh can increase incrementally from approximately 1.1 to 20 times and on occasion to as much as 80 times. These observed and measured increases in carbon monoxide in the flesh are dependent upon several factors including the quantity of myoglobin in the fish and other meats, carbon monoxide concentration, time, and method of exposure.

[4] = CO gill absorption formula calculation for tuna; settings: yellowfin tuna, hemoglobin 11-12 grams/deciliter x 1.39
Protocol: Hemoglobin CO capacity is 1.39 multiplied times the hemoglobin concentration in the blood which gives ml of CO per gram of Hb per deciliter of blood. For example, from the cardiorespiratory table above the hemoglobin concentration of yellowfin tuna is 11-12 grams/deciliter and when multiplied by 1.39 the result is 15.3-16.7 ml CO/deciliter of blood as the COHb capacity of yellowfin.
Maximum saturation time is a function of the gill absorption rate and reaching saturation equilibrium within the fish blood and the fish tissue. This absorption rate has two components, the CO bound to the Hb and the free CO diffused through the gills directly into the blood plasma. It can be computed by the following relationship:
CO gill absorption=(cardiac output*(Hb*1.39*%sat)*wt)+((cardiac output*(0.029*PCO)/100)*wt)
Cardiac output is in ml blood/min/kg; Hb is blood hemoglobin in grams/ml (Hb is divided by 100 to convert dl to ml; wt is fish weight in kg; 0.0029 is the solubility of CO in mlCO/dl; PCO is the partial pressure of CO in mmHg (0.0029*PCO) is divided by 100 to convert dl to ml.
From the cardiorespiratory function table above, we assume a yellowfin tuna with wt=1 kg; Hb=0.11 gm/ml; cardiac output=115 ml/min/kg; %sat=100%; and PCO=228 mmHg which is the partial pressure of tasteless smoke comprised of 30% CO. […]

Humans = settings: cited from earlier work
hemoglobin = settings: cited from earlier work

Row | Structure (SMILES) | solubility constant [1] | maximum solubility [2] [ml CO per liter H2O] | increase of CO concentration in the flesh over natural, on occasion [3] [times] | COHb capacity of blood [4] | COHb level at which rapid death occurs (Humans) | half-life (time for a 50% COHb reduction in the blood) (Humans) [h] | P50 partial pressure at which half the hemoglobin is saturated (hemoglobin) [mmHg]
1 | O=O [O2, oxygen, reference compound] | 0.030 ml O2/liter H2O/mm1Hg O2 | – | – | – | – | – | –
2 | [C-]#[O+] [CO, carbon monoxide] | 0.029 mlCO/liter H2O/mmHgCO | 17.63 | ≤ 80 | 15.3-16.7 ml CO/deciliter of blood | exceed 80% | 5 | 0.4
